Measurements taken from patent US20250051277A1, “DELIVERY OF THERAPEUTIC ALKALOID COMPOUNDS” (Sensorium Therapeutics, Inc., priority 2021, published 2025).
Where two headings read alike, the source gives them in different places.

Experiments:
[1] = format: physicochemical; conditions: SGF with pepsin, pH 1.5, 37° C., 0.5 mM
[2] = Hydrolysis Assay of Example A1 (conversion by LCMS); format: physicochemical; conditions: for Conversion (%) / Notes (hydrolysis): 0.5 mM, 0.01M HCl
Procedure: The hydrolysis kinetics was under a certain temperature and measured by LCMS at a certain time interval. The corresponding LCMS chromatograms were recorded and the conversions were calculated. The hydrolysis conditions and the data were summarized in below table. LCMS spectra were obtained using Agilent 1200/G1956A or SHIMADZU LCMS-2020. Standard LCMS conditions were as follows (running time 1.55 minutes): • Acidic condition: Mobile Phase A: 0.0375% TFA in water (v/v). Mobile Phase B: 0.01875% TFA in acetonitrile (v/v); Column: Kinetex EVO C18 30*2.1 mm, 5 μm. • Basic condition: Mobile Phase A: 0.025% NH3·H2O in water (v/v). Mobile Phase B: Acetonitrile; Column: Kinetex EVO C18 2.1×30 mm, 5 μm. • Conversion (%)=peak area 1/(peak area 1+peak area 2)*100%, peak area 1 is the integration of hydrolyzed product, peak area 2 is the integration of starting material.

[3] = 5 μM
[4] = Plasma Stability Assay of Example A3, human plasma; conditions: 5 μM, 37° C., % of prodrug compound remaining
[5] = Plasma Stability Assay of Example A3, mouse plasma; conditions: 5 μM, 37° C., % of prodrug compound remaining
[6] = format: physicochemical; conditions: DI water, 25° C., 0.5 mM

SMILES	Condition 1 Conversion (%) ([1]; time 1 min)	Condition 1 Conversion (%) ([1]; time 5 min)	Condition 1 Conversion (%) ([1]; time 30 min)	Condition 1 Conversion (%) ([1]; time 1 h)	Condition 1 Conversion (%) ([1]; time 4 h)	Condition 1 Conversion (%) ([1]; time 24 h)	Mouse Plasma Compound 001 (%) ([3]; 15 min)	Mouse Plasma Compound 001 (%) ([3]; 30 min)	Mouse Plasma Compound 001 (%) ([3]; 120 min)	Mouse Plasma Compound 001 (%) ([3]; 240 min)	Human Plasma Prodrug (%) ([4]; 0 min)	Human Plasma Prodrug (%) ([4]; 15 min)	Human Plasma Prodrug (%) ([4]; 30 min)	Human Plasma Prodrug (%) ([4]; 60 min)	Human Plasma Prodrug (%) ([4]; 120 min)	Human Plasma Prodrug (%) ([4]; 240 min)	Mouse Plasma Prodrug (%) ([5]; 0 min)	Mouse Plasma Prodrug (%) ([5]; 15 min)	Mouse Plasma Prodrug (%) ([5]; 30 min)	Mouse Plasma Prodrug (%) ([5]; 60 min)	further results
COc1ccc([C@@]23CCC(=NO)C[C@@H]2N(C)CC3)cc1OC (mixture of isomers) [Compound 037]	0	0	82.3	89	89.2	89.5	–	–	–	–	–	–	–	–	–	–	–	–	–	–	conversion to mesembrine in the Hydrolysis Assay ([2]; acidic pH 2.0, temperatures of 25 or 37° C.): converted to mesembrine; Conversion (%) ([2]; pH = 2.0, 37° C., 10 min): 59%; Conversion (%) ([2]; pH = 2.0, 37° C., 60 min): 84%; Conversion (%) ([2]; pH = 2.0, 37° C., 90 min): 87%
COc1ccc([C@]23CCN(C)[C@H]2CC2(CC3)OCCO2)cc1OC (racemic) [Compound 013, 3′a-(3,4-dimethoxyphenyl)-1′-methyl-spiro[1,3-dioxolane-2,6′-2,3,4,5,7,7a-hexahydroindole]]	–	–	–	–	–	–	–	–	–	–	–	–	–	–	–	–	–	–	–	–	conversion to mesembrine in the Hydrolysis Assay ([2]; acidic pH 2.0, 5° C. as printed): not at 5 °C; conversion to mesembrine in the Hydrolysis Assay ([2]; acidic pH 2.0, temperatures of 37 and 50° C.): converted to mesembrine; Conversion (%) ([2]; pH = 2.0, 25° C., 0-24 h): 0%; Notes (hydrolysis) ([2]; pH = 2.0, 25° C., 0-24 h): Stable; Conversion (%) ([2]; pH = 2.0, 37° C., 16 h): 17%; Conversion (%) ([2]; pH = 2.0, 37° C., 24 h): 22%; Conversion (%) ([2]; pH = 2.0, 37° C., 42 h): 35%; Conversion (%) ([2]; pH = 2.0, 37° C., 56 h): 50%; Conversion (%) ([2]; pH = 2.0, 37° C., 7 d): 77%; Conversion (%) ([2]; pH = 2.0, 50° C., 10 min): 1%; Conversion (%) ([2]; pH = 2.0, 50° C., 40 min): 2%; Conversion (%) ([2]; pH = 2.0, 50° C., 120 min): 19%; Conversion (%) ([2]; pH = 2.0, 50° C., 22 h): 90%
COc1ccc([C@]23CCN(C)[C@H]2CC2(CC3)SCCS2)cc1OC (racemic) [Compound 014, (7′aS)-3′a-(3,4-dimethoxyphenyl)-1′-methyl-spiro[1,3-dithiolane-2,6′-2,3,4,5,7,7a-hexahydroindole]]	–	–	–	–	–	–	–	–	–	–	–	–	–	–	–	–	–	–	–	–	Conversion (%) ([2]; pH = 2.0, 25° C., 0-24 h): 0%; Notes (hydrolysis) ([2]; pH = 2.0, 25° C., 0-24 h): Stable
COc1ccc([C@@]23CCC(OC(=O)C4CC4)=C[C@@H]2N(C)CC3)cc1OC [Compound 312, [(3aS,7aS)-3a-(3,4-dimethoxyphenyl)-1-methyl-3,4,5,7a-tetrahydro-2H-indol-6-yl]cyclopropanecarboxylate]	0	0	0	0	0	0	66.1	70.8	61.7	61.5	100.0	8.1	6.2	20.9	10.5	13.8	100.0	3.5	1.6	2.2	Mouse Plasma Compound 001 (%) ([3]; 60 min): 64.4%; Mouse Plasma Prodrug (%) ([5]; 120 min): 2.8%; Mouse Plasma Prodrug (%) ([5]; 240 min): 0.8%; Condition 2 Conversion (%) ([6]; time 1 min): 0%; Condition 2 Conversion (%) ([6]; time 5 min): 0%; Condition 2 Conversion (%) ([6]; time 30 min): 0%; Condition 2 Conversion (%) ([6]; time 1 h): 0%; Condition 2 Conversion (%) ([6]; time 4 h): 0%; Condition 2 Conversion (%) ([6]; time 24 h): 0%
C/C=C(\C)C(=O)OC1=C[C@@H]2N(C)CC[C@]2(c2ccc(OC)c(OC)c2)CC1 [Compound 313, [(3aS,7aS)-3a-(3,4-dimethoxyphenyl)-1-methyl-3,4,5,7a-tetrahydro-2H-indol-6-yl](E)-2-methylbut-2-enoate]	0	0	0	0	0	0	37.2	36.3	35.2	35.0	100.0	62.2	35.1	12.8	2.4	0.4	100.0	2.1	0.7	0.1	Mouse Plasma Compound 001 (%) ([3]; 60 min): 37.1%; Mouse Plasma Prodrug (%) ([5]; 120 min): 0.0%; Mouse Plasma Prodrug (%) ([5]; 240 min): 0.0%; Condition 2 Conversion (%) ([6]; time 1 min): 0%; Condition 2 Conversion (%) ([6]; time 5 min): 0%; Condition 2 Conversion (%) ([6]; time 30 min): 0%; Condition 2 Conversion (%) ([6]; time 1 h): 0%; Condition 2 Conversion (%) ([6]; time 4 h): 0%; Condition 2 Conversion (%) ([6]; time 24 h): 0%
C=C(C)C(=O)OC1=C[C@@H]2N(C)CC[C@]2(c2ccc(OC)c(OC)c2)CC1 [Compound 315, [(3aS,7aS)-3a-(3,4-dimethoxyphenyl)-1-methyl-3,4,5,7a-tetrahydro-2H-indol-6-yl]-2-methylprop-2-enoate]	0	0	0	0	0	0	60.4	61.9	57.3	55.8	100.0	16.6	2.3	0.5	0.2	0.0	100.0	5.3	2.4	1.3	Mouse Plasma Prodrug (%) ([5]; 120 min): 2.0%; Mouse Plasma Prodrug (%) ([5]; 240 min): 1.9%; Condition 2 Conversion (%) ([6]; time 1 min): 0%; Condition 2 Conversion (%) ([6]; time 5 min): 0%; Condition 2 Conversion (%) ([6]; time 30 min): 0%; Condition 2 Conversion (%) ([6]; time 1 h): 0%; Condition 2 Conversion (%) ([6]; time 4 h): 0%; Condition 2 Conversion (%) ([6]; time 24 h): 0%
